Results on one substance are retold here after patent publication US20040259173A1, “Method of determining target protein of drug” (priority 2001, published 2004).

The subject of assay [1] is bone resorption. The settings on record: cited from earlier work.
In assay [2] the target is src and Sam68 (Homo sapiens, UniProt Q07666). The settings on record: cited from earlier work.
Assay [3] concerns proteins in cell lysate of HCT116. The assay is described as follows: Protease digestion assay of HCT116 cell lysate, SDS-PAGE with Coomassie Brilliant Blue staining. The format is biochemical, human. The settings on record: UCS15A 0-300 μmol/L, 37° C. for 12 hours, endogenous protease. The protocol: (§1) By using Dulbecco's modification of Eagle's medium (DMEM) containing 10% fetal bovine serum, human colon tumor cell line HCT116 (ATCC number CCL-247) was cultured on 100 mm diameter dishes for cell culturing in a CO2 incubator at 37° C. under 5% CO2 condition, and proliferated by subculture with division into five portions every 3 days. The culture medium was removed from three HCT116 cell dishes on the third day from the subculture, and cells were washed by addition and successive removal of 10 ml of ice-cooled PBS. To these cells, 10 mL of RSB (10 mmol/L Tris-hydrochloride pH7.6, 10 mmol/L NaCl, 1.5 mmol/L MgCl2) having a low osmotic pressure was added. After the cells were put on ice for 10 minutes to allow expansion, the cells were detached from the dishes and put into 15 mL volume Dounce homogenizer together with the already added RBS. The cells were disrupted by 50 strokes of a pestle. This cell lysate was centrifuged at 4° C., 15,000 rpm for 30 minutes. The obtained supernatant was collected, and divided into ten 1 mL aliquots.
UCS15A was isolated and purified from Streptmyces actinobacterium, according to the descriptions in Japanese Published Unexamined Patent Application No. 58-116686, and a dimethylsulfoxide (DMSO) solution at a concentration of 10 mmol/L was prepared. […]

The subject of assay [4] is signal transduction of tyrosine kinase src. The settings on record: cited from earlier work.
In assay [5] the target is src (Homo sapiens, UniProt P12931). The settings on record: cited from earlier work.
Assay [6] has as its target T1, Sam68 (Homo sapiens, UniProt Q07666).
T1 construct: endogenous in cells; host or cells: HCT116 (ATCC CCL-247) cell lysate
In words: Protease digestion assay with specific detection of Sam68 by Western blotting. The settings on record: HCT116 cell lysate, 37° C. for 12 hours. It counts as biochemical. How it is done: as §1, with “The obtained supernatant was collected, and divided into ten 1 mL aliquots.” left out
Sam68 in the cell lysate was detected by Western blotting as described below. […]
When the protease digestion assay described in (2) was conducted, a protease inhibitor cocktail (Complete; manufactured by Roche) which can inhibit wide variety of proteases was added along with UCS15A, and the same reaction was proceeded. After the electrophoresis, Sam68 was detected by Western blotting in a same manner to that of (3). […]
On the technique in general: A western blot detects proteins with antibodies after separation by electrophoresis.

T1 sequence (Q07666 whole entry): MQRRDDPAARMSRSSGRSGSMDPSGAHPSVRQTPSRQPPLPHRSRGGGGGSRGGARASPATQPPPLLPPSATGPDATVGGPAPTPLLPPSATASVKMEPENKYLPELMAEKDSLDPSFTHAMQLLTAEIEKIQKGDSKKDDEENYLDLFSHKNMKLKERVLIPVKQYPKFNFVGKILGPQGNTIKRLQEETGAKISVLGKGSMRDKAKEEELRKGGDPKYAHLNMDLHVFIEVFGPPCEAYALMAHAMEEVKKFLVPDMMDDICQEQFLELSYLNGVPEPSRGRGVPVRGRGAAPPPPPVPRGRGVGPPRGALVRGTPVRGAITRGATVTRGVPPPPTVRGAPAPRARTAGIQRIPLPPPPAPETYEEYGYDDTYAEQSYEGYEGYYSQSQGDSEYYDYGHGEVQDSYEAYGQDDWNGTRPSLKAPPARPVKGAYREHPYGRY
src and Sam68, sequence (Q07666 whole entry, species assumed): as the sequence (Q07666 whole entry) above

Consider UCS15A, for which the “inhibitory activity on bone resorption” value in assay [1] was “has an inhibitory activity on bone resorption”. The “inhibition of binding between src and Sam68” value in assay [2] was “specifically inhibit the binding between src and Sam68”. Also, the “change of protein amounts in the cell lysate (Coomassie Brilliant Blue stained gel)” value in assay [3] is “Several proteins, which decreased their amounts with the increase of UCS15A concentration, were observed”. The “inhibition of signal transduction of tyrosine kinase src” value in assay [4] was “inhibit the signal transduction of tyrosine kinase src”. Further, in assay [5], the “inhibition of enzyme activity of src” value is given as “not to inhibit the enzyme activity of src”. Further, the “amount of Sam68 in the cell lysate (Western blotting)” value in assay [6] (UCS15A 0-300 μmol/L, endogenous protease, without protease inhibitor) is listed as “the amount of Sam68 in the cell lysate decreased with the increase of the UCS15A concentration”. For the same substance, the “amount of Sam68 in the cell lysate with protease inhibitor (Western blotting)” value in assay [6] (protease inhibitor cocktail (Complete) added along with UCS15A) is on record as “the decrease of the amount of Sam68 in the cell lysate was inhibited by the addition of a protease inhibitor”.
